# Measured values reported in ChEMBL document CHEMBL1201862, “PubChem BioAssay data set” (2004).
# Calls of active or inactive are those of the source.
# What was measured:
# [1] = target: Luciferin 4-monooxygenase (Photinus pyralis, UniProt P08659); test: inhibition of purified Photinus pyralis luciferase – biochemical, luminescence, dose response (AID 1891)
# [2] = target: T1, Nuclear receptor subfamily 0 group B member 1 (Homo sapiens, UniProt P51843); format: functional, cell-based;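 further: HEK293T cells transfected with SF-1 and DAX-1 plus StAR promoter luciferase reporter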
# T1 sequence (P51843 whole entry): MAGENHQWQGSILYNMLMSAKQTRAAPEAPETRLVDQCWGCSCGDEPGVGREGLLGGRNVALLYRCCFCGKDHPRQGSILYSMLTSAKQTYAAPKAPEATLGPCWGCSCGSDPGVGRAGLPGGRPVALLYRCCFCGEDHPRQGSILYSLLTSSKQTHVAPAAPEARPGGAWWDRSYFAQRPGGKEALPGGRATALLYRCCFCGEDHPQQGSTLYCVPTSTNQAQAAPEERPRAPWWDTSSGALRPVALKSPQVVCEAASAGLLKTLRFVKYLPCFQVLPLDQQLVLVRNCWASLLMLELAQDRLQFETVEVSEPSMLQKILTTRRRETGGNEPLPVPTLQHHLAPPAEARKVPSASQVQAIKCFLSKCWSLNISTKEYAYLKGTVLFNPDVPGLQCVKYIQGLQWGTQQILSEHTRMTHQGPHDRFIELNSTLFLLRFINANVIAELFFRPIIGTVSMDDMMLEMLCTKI
# [3] = viability loss in HepG2 hepatoma cells – cell-based, ATP luminescence, cherry-pick, activator set 2, cytotoxicity control, dose response (AID 1053143); format: functional
# [4] = Luminescence Cell-Based Dose Confirmation HTS to Identify Inhibitors of Platelet Dense Granule Release. [Related pubchem assays: 1663 (Primary HTS), 1678 (Summary of Project)]; format: functional
# [5] = system: HEK293; test: EBV LMP1 TES2 canonical NF-kB signalling blockers – cell-based, HEK293, luciferase, cherry-pick, dose response (AID 588343); format: functional; conditions: Homo sapiens
# [6] = cells; format: functional, cell-based
# [7] = target: T2, Oxysterols receptor LXR-beta (Homo sapiens, UniProt P55055); format: functional, cell-based;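 further: Cell-based luminescence dose-response assay of agonist activity at LXR, run as a confirmatory counterscreen to a daf-12 agonist screen; HEK293 cells with Gal4-LXR fusion and GAL4-driven luciferase reporter; agonist potency from rising luciferase signal of a Gal4-LXR reporter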
# T2 sequence (P55055 whole entry): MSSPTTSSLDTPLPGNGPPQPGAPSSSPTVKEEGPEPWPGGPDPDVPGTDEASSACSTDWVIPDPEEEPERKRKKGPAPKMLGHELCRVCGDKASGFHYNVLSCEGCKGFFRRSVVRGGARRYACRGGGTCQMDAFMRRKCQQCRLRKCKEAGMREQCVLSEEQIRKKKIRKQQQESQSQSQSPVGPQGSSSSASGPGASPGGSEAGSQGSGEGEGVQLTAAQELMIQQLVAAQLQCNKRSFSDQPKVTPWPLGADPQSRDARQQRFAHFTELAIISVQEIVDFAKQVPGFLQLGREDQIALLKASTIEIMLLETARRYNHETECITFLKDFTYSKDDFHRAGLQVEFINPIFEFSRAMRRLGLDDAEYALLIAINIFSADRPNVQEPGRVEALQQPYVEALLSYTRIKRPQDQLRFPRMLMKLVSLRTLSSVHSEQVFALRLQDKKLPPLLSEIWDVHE
# [8] = cells
# [9] = target: 1-phosphatidylinositol 4,5-bisphosphate phosphodiesterase gamma-1 (Homo sapiens, UniProt P19174); test: Counterscreen for inhibitors of phospholipase C isozymes (PLC-B3): Fluorescence-based biochemical high throughput dose response assay to identify inhibitors of phospholipase C isozymes (PLC-gamma1).
# [10] = target: 1-phosphatidylinositol 4,5-bisphosphate phosphodiesterase beta-3 (Homo sapiens, UniProt Q01970); test: Fluorescence-based biochemical high throughput dose response assay to identify inhibitors of phospholipase C isozymes (PLC-B3).
# [11] = target: T3, Zinc finger protein mex-5 (Caenorhabditis elegans, UniProt Q9XUB2); test: potency of MEX-5 RNA-binding blockers – biochemical, C. elegans, fluorescence polarization, dose response (AID 1960)
# T3 sequence (Q9XUB2 whole entry): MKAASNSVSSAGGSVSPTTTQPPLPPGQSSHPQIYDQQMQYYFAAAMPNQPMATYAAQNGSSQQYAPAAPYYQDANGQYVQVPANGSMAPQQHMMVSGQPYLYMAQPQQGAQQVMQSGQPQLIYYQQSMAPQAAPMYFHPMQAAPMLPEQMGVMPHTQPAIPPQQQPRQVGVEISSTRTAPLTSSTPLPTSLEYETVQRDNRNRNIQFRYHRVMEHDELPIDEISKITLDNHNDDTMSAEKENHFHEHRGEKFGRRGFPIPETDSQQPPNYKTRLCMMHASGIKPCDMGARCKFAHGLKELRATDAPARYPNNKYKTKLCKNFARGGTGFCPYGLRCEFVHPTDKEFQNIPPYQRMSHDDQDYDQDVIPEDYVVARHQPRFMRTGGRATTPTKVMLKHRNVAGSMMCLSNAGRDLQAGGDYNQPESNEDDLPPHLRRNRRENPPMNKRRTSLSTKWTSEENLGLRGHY
# [12] = target: T4, RNA-binding protein pos-1 (Caenorhabditis elegans, UniProt G5EF15); test: disruptors of C. elegans POS-1 RNA interaction – biochemical, fluorescence polarization, dose response (AID 1964);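 further: purified POS-1 fused to maltose binding protein made in E. coli; potency of compounds blocking POS-1 binding to fluorescent RNA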
# T4 sequence (G5EF15 whole entry): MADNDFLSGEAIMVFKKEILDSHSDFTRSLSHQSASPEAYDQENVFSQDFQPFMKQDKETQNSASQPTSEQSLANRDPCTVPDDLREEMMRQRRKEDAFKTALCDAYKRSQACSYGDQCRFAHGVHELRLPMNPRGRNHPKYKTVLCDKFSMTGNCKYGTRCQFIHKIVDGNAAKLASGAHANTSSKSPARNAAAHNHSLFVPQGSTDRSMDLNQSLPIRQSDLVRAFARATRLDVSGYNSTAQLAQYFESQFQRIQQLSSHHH
# [13] = viability loss in HEK293 cells – cell-based, plate reader, cherry-picked samples, cytotoxicity control, dose response (AID 743446); format: functional
# [14] = toxicity toward HepG2 liver cells – cell-based, plate reader, cherry-pick, antagonist series, cytotoxicity control, dose response (AID 743416); format: functional
# [15] = blockers of bursicon-stimulated LGR2 cAMP reporter – cell-based, HEK293, CRE-luciferase reporter, cherry pick, set 2, dose response (AID 743343); format: functional;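 further: transfected cells were stimulated with diluted bursicon conditioned medium after compound addition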
# [16] = system: BJ; test: BJ-TERT fibroblast viability loss – cell-based, RAS-independent, luminescence, dose response (AID 1933); format: functional; conditions: Homo sapiens
# [17] = system: BJ; test: BJ-TERT-LT-ST fibroblast viability loss – cell-based, RAS-independent, luminescence, dose response (AID 1935); format: functional; conditions: Homo sapiens;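 further: BJ fibroblasts immortalized with TERT plus LT and ST oncogenes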
# [18] = blockade of melanocortin 4 receptor signaling – cell-based, plate reader, cherry pick, counter-screen for LGR2 antagonist project, dose response (AID 743444); format: functional;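 further: transfected HEK 293 cells stimulated with alpha-MSH peptide; potency of inhibitors of the alpha-MSH evoked signal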
# [19] = target: Endoplasmic reticulum aminopeptidase 1 (Homo sapiens, UniProt Q9NZ08); test: inhibition of human ERAP1 enzyme activity – biochemical, cherry-pick, set 2, plate reader, dose response (AID 743314)
# [20] = DRD fibroblast viability loss – cell-based, non-viral oncogenic, luminescence, dose response (AID 1934); format: functional; conditions: Homo sapiens
# [21] = system: INS1; test: INS-1E survival protection against cytokine death – cell-based, luminescence, retest, dose response (AID 449756); format: functional; conditions: Rattus norvegicus;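 further: cell death triggered by IL-1 beta plus TNF-alpha plus IFN-gamma mixture; protective hits raise ATP signal compared with cytokine alone wells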
# [22] = system: BJ; test: cells; format: functional, cell-based; conditions: Homo sapiens
# [23] = A549 cell cytotoxicity, dose response, cytotoxicity control, plate reader, cherry-pick, antagonist series (AID 743412); format: functional, cell-based
# [24] = Luminescence Cell-Based Dose Response HTS to Identify Activators of Luciferase Translation or Activity in H4 […] Cells. [Related pubchem assays: 1829 (Project Summary), 1814 (Primary HTS)]; format: functional
# [25] = target: T5, Protein skinhead-1 (Caenorhabditis elegans, UniProt P34707); format: functional
# T5 sequence (P34707 whole entry): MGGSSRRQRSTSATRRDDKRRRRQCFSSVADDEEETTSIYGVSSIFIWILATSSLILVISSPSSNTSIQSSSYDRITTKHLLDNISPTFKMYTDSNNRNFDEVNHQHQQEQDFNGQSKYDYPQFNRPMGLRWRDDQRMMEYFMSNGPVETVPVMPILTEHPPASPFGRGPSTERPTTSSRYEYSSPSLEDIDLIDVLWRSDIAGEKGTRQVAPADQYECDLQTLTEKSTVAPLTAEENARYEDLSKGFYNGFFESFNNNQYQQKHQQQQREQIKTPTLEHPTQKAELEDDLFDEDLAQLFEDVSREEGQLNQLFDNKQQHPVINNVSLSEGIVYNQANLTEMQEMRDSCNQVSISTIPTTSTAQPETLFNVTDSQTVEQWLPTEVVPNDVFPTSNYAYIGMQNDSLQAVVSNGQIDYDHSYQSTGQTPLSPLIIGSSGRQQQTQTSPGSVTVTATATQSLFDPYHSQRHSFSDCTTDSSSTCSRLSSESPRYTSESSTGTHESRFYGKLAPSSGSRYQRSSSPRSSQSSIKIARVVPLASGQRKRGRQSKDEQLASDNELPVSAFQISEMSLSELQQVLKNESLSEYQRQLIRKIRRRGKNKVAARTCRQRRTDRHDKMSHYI
# [26] = cells; format: functional, cell-based; remark: listed apart in the source
# [27] = system: H4; test: Luminescence Cell-Based Dose Response HTS to Identify Activators of 5'UTR Stem-Loop Driven Prion Protein mRNA Translation in H4 Neuroglioblastoma Cells. [Related pubchem assays: 1829 (Project Summary), 1814 (Primary HTS)]; format: functional; conditions: Homo sapiens
# [28] = cells; format: functional, cell-based; remark: listed apart in the source
# [29] = HEK-293T viability loss, compound-treated – cell-based, uHTS hits, cytotoxicity control for B/T-cell NF-kB inhibitor project, dose response (AID 489019); format: functional;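 further: IC50 reflects cytotoxicity as loss of cell viability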
# [30] = reduction of Shn3 3'UTR-driven luciferase in osteoblasts – cell-based, Clone20 osteoblasts, firefly luciferase, cherry-picked, dose response (AID 624132); format: functional;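 further: firefly luciferase luminescence from reporter carrying the Shn3 3'UTR in osteoblasts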
# [31] = Shn3 3'UTR reporter signal decrease – cell-based, Clone20 osteoblasts, firefly luciferase, cherry-pick, set 2, Schnurri-3 inhibitor project, dose response (AID 720490); format: functional;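 further: actives lower the luminescence signal as inhibitors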
# [32] = system: Jurkat; test: blockers of NF-kB activation in T cells – Jurkat, luciferase reporter, luminescence, B- and T-cell, dose response (AID 489004); format: functional, cell-based; conditions: Homo sapiens;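 further: NF-kB luciferase reporter Jurkat cells stimulated with PMA plus ionomycin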
# Chain of Luciferin 4-monooxygenase (P08659 whole entry): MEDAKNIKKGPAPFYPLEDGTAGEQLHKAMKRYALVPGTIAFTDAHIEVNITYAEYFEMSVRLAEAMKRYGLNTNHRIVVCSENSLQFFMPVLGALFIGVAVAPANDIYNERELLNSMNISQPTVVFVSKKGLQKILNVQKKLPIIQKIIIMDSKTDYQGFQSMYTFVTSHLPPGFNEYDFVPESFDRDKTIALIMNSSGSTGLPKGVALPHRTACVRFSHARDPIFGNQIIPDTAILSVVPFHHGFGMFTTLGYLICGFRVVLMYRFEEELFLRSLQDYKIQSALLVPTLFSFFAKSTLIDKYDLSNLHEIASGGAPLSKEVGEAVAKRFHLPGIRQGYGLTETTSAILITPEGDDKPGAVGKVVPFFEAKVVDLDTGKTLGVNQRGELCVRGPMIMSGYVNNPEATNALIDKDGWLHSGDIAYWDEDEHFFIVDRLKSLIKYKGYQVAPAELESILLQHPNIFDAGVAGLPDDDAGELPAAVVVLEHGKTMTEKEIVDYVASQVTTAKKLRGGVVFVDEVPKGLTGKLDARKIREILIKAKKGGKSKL
# Chain of 1-phosphatidylinositol 4,5-bisphosphate phosphodiesterase gamma-1 (P19174 whole entry): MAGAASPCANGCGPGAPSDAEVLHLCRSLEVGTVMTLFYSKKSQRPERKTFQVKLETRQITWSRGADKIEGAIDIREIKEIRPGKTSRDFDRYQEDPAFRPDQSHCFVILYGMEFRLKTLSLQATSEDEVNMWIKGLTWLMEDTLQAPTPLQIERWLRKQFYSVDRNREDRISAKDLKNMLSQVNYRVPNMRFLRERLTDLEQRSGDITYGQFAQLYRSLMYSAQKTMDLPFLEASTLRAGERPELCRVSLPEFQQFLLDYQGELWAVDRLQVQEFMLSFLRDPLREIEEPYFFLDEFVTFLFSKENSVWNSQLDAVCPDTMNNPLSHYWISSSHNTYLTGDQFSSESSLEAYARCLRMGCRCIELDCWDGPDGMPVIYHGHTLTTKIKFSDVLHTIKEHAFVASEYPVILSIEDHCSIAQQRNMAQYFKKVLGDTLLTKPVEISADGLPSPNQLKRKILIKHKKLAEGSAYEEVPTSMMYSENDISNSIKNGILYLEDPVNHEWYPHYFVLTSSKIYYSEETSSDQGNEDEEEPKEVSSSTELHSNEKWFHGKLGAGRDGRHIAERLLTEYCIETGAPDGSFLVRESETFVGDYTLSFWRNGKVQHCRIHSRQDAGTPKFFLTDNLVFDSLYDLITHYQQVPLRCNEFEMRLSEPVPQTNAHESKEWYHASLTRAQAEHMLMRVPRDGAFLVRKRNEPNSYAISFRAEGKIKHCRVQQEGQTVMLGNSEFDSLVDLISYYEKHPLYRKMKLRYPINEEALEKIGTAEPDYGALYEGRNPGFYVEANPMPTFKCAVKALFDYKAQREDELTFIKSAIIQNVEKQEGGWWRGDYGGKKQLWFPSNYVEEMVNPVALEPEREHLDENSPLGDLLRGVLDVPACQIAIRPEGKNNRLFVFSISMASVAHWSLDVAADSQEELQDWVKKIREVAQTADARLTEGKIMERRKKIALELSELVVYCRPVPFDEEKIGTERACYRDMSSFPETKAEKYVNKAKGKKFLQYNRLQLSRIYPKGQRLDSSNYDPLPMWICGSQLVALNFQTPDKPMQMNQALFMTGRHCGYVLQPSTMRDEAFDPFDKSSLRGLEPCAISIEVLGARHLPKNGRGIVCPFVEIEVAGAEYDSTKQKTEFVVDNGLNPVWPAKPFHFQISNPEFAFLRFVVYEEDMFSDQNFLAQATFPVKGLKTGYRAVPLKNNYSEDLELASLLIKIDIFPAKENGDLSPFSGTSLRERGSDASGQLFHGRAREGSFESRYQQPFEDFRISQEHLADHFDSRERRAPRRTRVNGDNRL
# Chain of 1-phosphatidylinositol 4,5-bisphosphate phosphodiesterase beta-3 (Q01970 whole entry): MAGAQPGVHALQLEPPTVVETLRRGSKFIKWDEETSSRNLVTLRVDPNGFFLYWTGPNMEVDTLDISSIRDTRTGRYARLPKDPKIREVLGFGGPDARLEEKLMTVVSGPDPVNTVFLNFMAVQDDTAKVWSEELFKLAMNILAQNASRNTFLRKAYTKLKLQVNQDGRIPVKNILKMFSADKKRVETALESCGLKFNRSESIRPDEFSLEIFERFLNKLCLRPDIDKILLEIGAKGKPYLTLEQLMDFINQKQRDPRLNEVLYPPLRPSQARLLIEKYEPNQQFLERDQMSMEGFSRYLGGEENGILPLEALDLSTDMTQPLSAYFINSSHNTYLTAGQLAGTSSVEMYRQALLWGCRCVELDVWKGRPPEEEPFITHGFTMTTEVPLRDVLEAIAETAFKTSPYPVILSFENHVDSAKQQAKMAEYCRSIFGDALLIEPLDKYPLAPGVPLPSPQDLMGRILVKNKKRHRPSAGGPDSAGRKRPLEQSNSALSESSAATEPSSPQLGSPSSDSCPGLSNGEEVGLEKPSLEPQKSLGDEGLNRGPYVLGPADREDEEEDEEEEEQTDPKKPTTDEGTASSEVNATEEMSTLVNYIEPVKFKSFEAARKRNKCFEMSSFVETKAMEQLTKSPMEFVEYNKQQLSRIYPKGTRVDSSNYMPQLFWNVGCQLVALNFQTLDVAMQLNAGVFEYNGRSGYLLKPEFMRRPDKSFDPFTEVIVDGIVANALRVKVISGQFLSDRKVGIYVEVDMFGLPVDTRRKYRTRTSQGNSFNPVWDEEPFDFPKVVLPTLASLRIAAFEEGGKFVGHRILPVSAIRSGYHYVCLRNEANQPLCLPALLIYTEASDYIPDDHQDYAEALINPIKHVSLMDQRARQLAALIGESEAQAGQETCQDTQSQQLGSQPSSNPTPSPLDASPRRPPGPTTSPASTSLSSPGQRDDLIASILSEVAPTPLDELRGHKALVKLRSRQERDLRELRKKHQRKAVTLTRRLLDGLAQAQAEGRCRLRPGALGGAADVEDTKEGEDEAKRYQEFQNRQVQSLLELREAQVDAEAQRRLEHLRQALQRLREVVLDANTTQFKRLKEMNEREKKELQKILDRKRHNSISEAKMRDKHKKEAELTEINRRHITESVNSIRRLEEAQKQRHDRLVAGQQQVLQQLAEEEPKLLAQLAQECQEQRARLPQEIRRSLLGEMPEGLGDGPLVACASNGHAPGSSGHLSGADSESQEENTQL
# Chain of Endoplasmic reticulum aminopeptidase 1 (Q9NZ08 whole entry): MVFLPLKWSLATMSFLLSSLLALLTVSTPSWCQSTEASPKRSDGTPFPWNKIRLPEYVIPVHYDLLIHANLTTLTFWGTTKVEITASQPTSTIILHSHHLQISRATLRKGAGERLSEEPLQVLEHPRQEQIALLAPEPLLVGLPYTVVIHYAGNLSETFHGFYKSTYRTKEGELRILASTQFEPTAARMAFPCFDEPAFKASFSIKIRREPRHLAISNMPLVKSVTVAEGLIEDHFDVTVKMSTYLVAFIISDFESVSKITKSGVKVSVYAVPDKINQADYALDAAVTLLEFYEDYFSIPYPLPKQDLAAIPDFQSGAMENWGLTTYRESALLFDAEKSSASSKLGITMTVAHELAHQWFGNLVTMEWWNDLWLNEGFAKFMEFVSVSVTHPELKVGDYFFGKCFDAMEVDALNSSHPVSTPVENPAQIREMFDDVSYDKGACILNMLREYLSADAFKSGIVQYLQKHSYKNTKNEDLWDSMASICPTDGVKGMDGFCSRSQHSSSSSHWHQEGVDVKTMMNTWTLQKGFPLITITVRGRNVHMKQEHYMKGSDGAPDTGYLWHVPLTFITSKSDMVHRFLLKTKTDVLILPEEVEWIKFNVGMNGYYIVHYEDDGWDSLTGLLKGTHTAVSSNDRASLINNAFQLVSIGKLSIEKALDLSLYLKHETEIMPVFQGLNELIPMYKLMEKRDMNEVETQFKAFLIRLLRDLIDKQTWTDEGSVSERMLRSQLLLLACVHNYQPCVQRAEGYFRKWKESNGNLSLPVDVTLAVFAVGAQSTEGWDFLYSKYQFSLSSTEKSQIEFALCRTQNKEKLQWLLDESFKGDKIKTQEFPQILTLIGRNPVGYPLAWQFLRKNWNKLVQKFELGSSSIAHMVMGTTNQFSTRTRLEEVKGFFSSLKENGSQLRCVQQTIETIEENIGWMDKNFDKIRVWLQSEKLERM
smiles,measurement,setting,value
Cc1ccnc(NC(=O)c2ccc(OCC3CCCO3)cc2)c1 (stereo not given),EC50,[1],7.94 µM (active)
same,IC50,[2],> 67.5 µM (inactive)
same,AC50,[3],26 µM (active)
same,EC50,[4],5.2 µM (active)
same,AC50,[5],2.57 µM (active)
same,IC50,[6],> 67.5 µM (inactive)
COc1ccccc1C(=O)NC(=O)Nc1cccc(Cl)c1,EC50,[7],> 67.5 µM (inactive)
same,EC50,[8],> 67.5 µM (inactive)
N#C/C(=C\c1cc(O)c(O)c(O)c1)C(N)=O,IC50,[9],> 122 µM (inactive)
same,IC50,[10],> 122 µM (inactive)
same,EC50,[11],> 150 µM (inconclusive)
same,EC50,[12],134 µM (active)
Cc1cc2nc(-c3cccnc3O)[nH]c2cc1C,AC50,[13],6.43 µM (active)
same,AC50,[14],7.17 µM (active)
same,AC50,[15],2.48 µM (active)
same,EC50,[16],4.58 µM (active)
same,EC50,[1],1.07 µM (active)
same,EC50,[17],13.3 µM (active)
same,AC50,[18],2.69 µM (active)
same,EC50,[4],1.73 µM (active)
same,AC50,[19],7.63 µM (active)
same,EC50,[20],4.3 µM (active)
same,AC50,[21],3.23 µM (active)
same,EC50,[22],8.47 µM (active)
same,AC50,[23],8.69 µM (active)
O=C(NC1CCCC1)c1cc(-c2ccccc2)on1,EC50,[24],0.355 µM (active)
same,IC50,[25],> 100 µM (inactive)
same,EC50,[26],> 350 µM (not active)
same,AC50,[3],26 µM (active)
same,EC50,[27],3.13 µM (active)
same,EC50,[28],330 µM (active)
CCn1c(C)cc(C(=O)COC(=O)c2ccccc2[N+](=O)[O-])c1C,IC50,[29],> 80 µM (inactive)
same,AC50,[30],< 0.26 µM (active)
same,AC50,[31],< 0.135 µM (active)
same,IC50,[32],< 0.16 µM (active)
